The data set addresses ATP-dependent translocase ABCB1 (Rattus norvegicus, UniProt P43245). Kind of data set: TP_TRANSPORTER: RNase protection assay in H-4-II-E cells. In kind it is functional, cell-based.

These results are taken from ChEMBL document CHEMBL2074395, “NF-kappaB-mediated induction of mdr1b expression by insulin in rat hepatoma cells” (J Biol Chem, 1997).

Sequence of ATP-dependent translocase ABCB1 (P43245 whole entry): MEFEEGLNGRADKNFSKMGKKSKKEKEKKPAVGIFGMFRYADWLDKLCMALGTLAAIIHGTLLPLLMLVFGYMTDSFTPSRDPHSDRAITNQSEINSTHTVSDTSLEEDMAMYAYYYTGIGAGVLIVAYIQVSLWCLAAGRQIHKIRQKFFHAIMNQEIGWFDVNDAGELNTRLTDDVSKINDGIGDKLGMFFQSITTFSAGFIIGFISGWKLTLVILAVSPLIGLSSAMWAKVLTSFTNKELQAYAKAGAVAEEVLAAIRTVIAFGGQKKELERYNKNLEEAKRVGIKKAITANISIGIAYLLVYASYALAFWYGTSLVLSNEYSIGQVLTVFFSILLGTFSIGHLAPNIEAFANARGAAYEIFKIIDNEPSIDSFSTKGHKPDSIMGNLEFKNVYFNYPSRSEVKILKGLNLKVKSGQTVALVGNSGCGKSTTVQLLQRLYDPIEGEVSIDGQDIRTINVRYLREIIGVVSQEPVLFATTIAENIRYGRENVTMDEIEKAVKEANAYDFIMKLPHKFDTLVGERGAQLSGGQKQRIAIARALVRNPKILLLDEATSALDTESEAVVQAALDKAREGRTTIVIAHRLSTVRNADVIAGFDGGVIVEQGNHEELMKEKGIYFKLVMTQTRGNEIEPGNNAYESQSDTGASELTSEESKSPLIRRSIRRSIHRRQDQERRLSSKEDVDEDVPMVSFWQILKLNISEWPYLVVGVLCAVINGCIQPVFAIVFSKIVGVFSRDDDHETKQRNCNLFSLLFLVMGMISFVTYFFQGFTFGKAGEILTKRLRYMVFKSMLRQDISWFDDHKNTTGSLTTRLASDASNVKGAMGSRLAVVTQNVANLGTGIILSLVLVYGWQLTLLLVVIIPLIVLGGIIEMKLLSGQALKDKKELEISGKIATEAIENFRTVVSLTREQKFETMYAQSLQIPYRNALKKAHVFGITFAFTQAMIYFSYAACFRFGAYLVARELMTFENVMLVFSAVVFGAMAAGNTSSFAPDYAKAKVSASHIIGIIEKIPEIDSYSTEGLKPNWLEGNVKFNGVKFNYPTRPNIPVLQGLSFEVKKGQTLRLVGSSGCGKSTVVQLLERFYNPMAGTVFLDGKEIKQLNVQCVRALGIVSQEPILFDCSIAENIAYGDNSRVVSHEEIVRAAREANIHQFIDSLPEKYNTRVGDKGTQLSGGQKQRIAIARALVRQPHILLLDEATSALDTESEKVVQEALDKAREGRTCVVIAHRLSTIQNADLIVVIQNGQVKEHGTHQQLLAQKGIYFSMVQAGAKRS

As to INSULIN HUMAN, the Activity result was “inducer [+]”.
